# Entries after “also recorded” stand apart in the source; their conditions may differ.
# Tests used:
# CYP7A1 = settings: hypercholesterolemic hamsters; cited from earlier work
# CYP3A4 = assay: Functional cytochrome p450 assay by qPCR, CYP3A4; settings: hepatocyte-like cells, rifampicin 25 μM + itraconazole 25 μM, 24 hr
# hTS cells [1] = assay: Hepatocytic differentiation of hTS cells after DE stage; settings: dexamethasone 0.1 μM and oncostatin M 10 ng/ml added at 8 hr of bFGF induction, 4 days
# miR-124a = miR-124a expression in hTS cells by qPCR; type: cell-based, human; settings: bFGF induction, DE stage
# Excerpt: U6 snRNA (RNU6B; Applied Biosystems) served as an endogenous control.
# hTS cells [2] = assay: bFGF induction of DE differentiation in hTS cells, DE-associated markers over time; type: cell-based, human; settings: bFGF 10 ng/ml
# Description: (§1) For immunoblotting assay, cells were harvested into RIPA lysis solution (Millipore, Billerica, Mass.) supplemented with protease and phosphatase inhibitors (Roche). After electrophoresis of 30 μg lysates on polyacrylamide gels, electroblotting onto PDVF membranes (Millipore) was performed. After blocked by 5% non-fat milk in PBS at room temperature (1 hr), target protein was detected by using primary antibody. All membranes were incubated with chemiluminescent (Millipore) and imaging was captured by the ChemiDoc XRS system (Bio-RAD). Data were analyzed by AlphaEaseFC (version 4.0.0) system. For IP assay, Cell lysates of bFGF-treated hTS cells were collected. By incubation with protein G-agarose (Millipore) for 30 min, total protein (100 μg) was treated with specific primary antibody overnight listed in Table 1. After treating with protein G-agarose beads (2 hr), sample was washed three times with RIPA lysis buffer (Millipore), following by adding with protein loading dye and boiled for 5 min. The sample was resolved by 8% SDS-PAGE and subjected to immunoblotting analysis.
# (§2) Slides with cell culture was fixed for 30 min at room temperature in 95% (v/v) ethanol, washed three times in PBS and incubated with blocking buffer PBS containing 0.1% (wt/v) Triton X-100 (Sigma) and 5% (v/v) normal donkey serum (Millipore) for 60 min. Primary and secondary antibodies were diluted in blocking buffer. Primary antibody was incubated. After incubation with specific primary antibody in PBS at 4° C. (24 hr) or room temperature (2 hr), appropriate fluorescein isothiocyante (FITC, Invitrogen) or ALEXA FLUOR® 488, 594, and 647 (Invitrogen) or Dylight 488 and 594 (BioLegend) conjugated secondary antibody was added at room temperature (1 hr). After DAPI staining of nucleus (5 min), incubation with secondary antibody (1 hr) at room temperature, and washes, sample was mounted with 50% glycerol. Images were captured by confocal laser scanning microscopy (LSM700; Zeiss Z1 or Olympus FluoView 1000 confocal laser scanning microscope) or TissueFAXS system (TissueQnostics GmbH, Vienna, Austria). Data were analyzed by TissueQuest software.
# This study was approved by the Institutional Review Board on Human Subjects Research and Ethics Committees (KMUHIRB-20140071). […] For DE differentiation, cells were carried out by a conditioned a-MEM media containing 10% FBS, 2-mercaptoethanol (1 mM), nicotinamide (10 mM), and bFGF (10 ng/ml) for 8 hr, according to the empirical studies (data not shown). […] Cells were harvested at 4-7 days for assay as indicated. Determination of stage-specific differentiation of lineages depends on the hepatic cell-associated markers in liver development.
# as §2, with “Briefly, slides” for “Slides”, “DYLIGHT®” for “Dylight”, “glycerol.” for “glycerol. Images were captured by confocal laser scanning microscopy (LSM700; Zeiss Z1 or Olympus FluoView 1000 confocal laser scanning microscope) or TissueFAXS system (TissueQnostics GmbH, Vienna, Austria). Data were analyzed by TissueQuest software.”
# [3] = tested on: PI3K/AKT/CREB1 signaling pathway; assay: bFGF-induced PI3K/AKT/CREB1 signaling by immunoblotting; type: cell-based, human; settings: bFGF 10 ng/ml, 4 hr induction, hTS cells
# Description: as §1, with “The sample was resolved by 8% SDS-PAGE and subjected to immunoblotting analysis.” left out
# (§3) For immunoblotting assay, cells were harvested into RIPA lysis solution (Millipore, Billerica, Mass.) supplemented with protease and phosphatase inhibitors (Roche). […] After blocked by 5% non-fat milk in PBS at room temperature (1 hr), target protein was detected by using primary antibody. […] Data were analyzed by AlphaEaseFC (version 4.0.0) system. […]
# FGF receptor (FGFR) = target: T1, FGF receptor (FGFR) (Homo sapiens, UniProt P11362); assay: FGFR inhibitor block of bFGF-induced PI3K by immunoblotting; type: cell-based; settings: hTS cells, bFGF 10 ng/ml
# T1 construct: endogenous in cells; host or cells: hTS cells (human trophoblast stem cells)
# Description: as §1, with “The sample was resolved by 8% SDS-PAGE and subjected to immunoblotting analysis.” left out
# as §3
# [4] = cited from earlier work
# T1 sequence (P11362 22-822): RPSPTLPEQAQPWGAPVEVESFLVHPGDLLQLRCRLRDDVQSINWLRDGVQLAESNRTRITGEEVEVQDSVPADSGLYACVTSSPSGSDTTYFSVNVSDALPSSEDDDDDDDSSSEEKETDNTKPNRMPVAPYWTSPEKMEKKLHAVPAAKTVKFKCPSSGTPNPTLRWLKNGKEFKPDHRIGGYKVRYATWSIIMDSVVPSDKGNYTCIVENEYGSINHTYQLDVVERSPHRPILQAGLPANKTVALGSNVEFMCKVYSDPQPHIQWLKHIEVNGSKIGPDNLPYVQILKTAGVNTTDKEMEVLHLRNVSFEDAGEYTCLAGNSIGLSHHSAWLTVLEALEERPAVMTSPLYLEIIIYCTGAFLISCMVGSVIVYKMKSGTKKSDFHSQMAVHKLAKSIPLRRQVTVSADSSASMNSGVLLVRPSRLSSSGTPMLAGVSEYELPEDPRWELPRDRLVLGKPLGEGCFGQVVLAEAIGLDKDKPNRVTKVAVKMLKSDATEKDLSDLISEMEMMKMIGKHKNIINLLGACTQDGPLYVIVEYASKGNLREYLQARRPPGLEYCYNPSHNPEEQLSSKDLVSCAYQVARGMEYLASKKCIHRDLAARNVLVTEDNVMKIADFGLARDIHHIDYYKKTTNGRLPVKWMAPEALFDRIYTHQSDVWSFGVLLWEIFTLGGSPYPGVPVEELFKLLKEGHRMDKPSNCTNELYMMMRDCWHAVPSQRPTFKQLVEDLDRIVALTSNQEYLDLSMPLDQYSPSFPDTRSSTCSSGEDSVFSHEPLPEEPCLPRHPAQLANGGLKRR
molecule,measurement,setting,value
CC(=O)c1c(O)cc(O)cc1O [THA],CYP7A1 activity and mRNA expression,CYP7A1,promotes both CYP7A1 activity and mRNA expression
same,plasma cholesterol and triglyceride,CYP7A1,reduce both plasma cholesterol and triglyceride
CCC(C)n1ncn(-c2ccc(N3CCN(c4ccc(OCC5COC(Cn6cncn6)(c6ccc(Cl)cc6Cl)O5)cc4)CC3)cc2)c1=O (stereo not shown) [itraconazole],inducer-induced CYP3A4 mRNA in response to inhibitor,CYP3A4,reduced
C[C@@H]1C[C@H]2[C@@H]3CCC4=CC(=O)C=C[C@]4(C)[C@@]3(F)[C@@H](O)C[C@]2(C)[C@@]1(O)C(=O)CO [dexamethasone],differentiation to hepatocyte-like cells expressing hepatic markers,hTS cells [1],resulted in the differentiation of hepatocyte-like cells
"bFGF: basic fibroblast growth factor, used at 10 ng/ml to induce DE differentiation of hTS cells",time of peak miR-124a expression,miR-124a,4 h
same,SOX17 levels at peak,"hTS cells [2]; 2 hr, immunoblotting",1.5 fold
same,"intensity of Mixl1, nadir lower than the native one","hTS cells [2]; 4 hr, TissueFAX analysis",~50%
same,"MIXL1 levels, nadir lower than the native one","hTS cells [2]; 4 hr, immunoblotting",~50%
same,DE formation,hTS cells [2]; 8 hr induction,efficiently yield DE; also recorded: rapidly differentiate hTS cells to DE stage
same,FOXA2 highest levels,"hTS cells [2]; 8 hr, immunoblotting",3 fold
same,activation of the PI3K/AKT1/CREB1 signaling pathway,[3],induces activation
COc1cc(OC)cc(-c2cc3cnc(N)nc3nc2NC(=O)NC(C)(C)C)c1 [PD166866],bFGF-induced activation of PI3K,FGF receptor (FGFR),block
"ClC(Cl)(Cl)Cl [CCl4, carbon tetrachloride]",half-live in blood,[4],24 h
